Measurements reported in patent publication US11174282B2, “Aminosteroid derivatives and process for producing same” (UNIVERSITÉ LAVAL, priority 2016, dated 2021).
“Also recorded” adds a separate entry of the source. Read-outs that look alike come from different tables or passages of the source. Blank lines part the entries; values can stand above or below the compound they belong to.

Tests used:
[1] = system: Human pancreas cancer cells (PANC-1); experiment: Cell proliferation assay (MTS), PANC-1; type: cell-based; conditions: for IC50: read-out: IC50 (μM) Pancreatic cancer PANC-1; for antiproliferative activity relative to RM-133, PANC-1: fold of RM-133 activity (>1 = more active)
Experimental: (§1) The different aminosteroids were dissolved in methanol (50 mM).

[2] = Metabolic stability assay, human liver microsomes; conditions: 1 h; for increased metabolic stability relative to RM-133: human hepatic microsomes
Experimental: (§2) Assays were performed at 37° C. for 1 h, with or without 10 mM NADPH in the presence of 40 μg of human liver microsome from Corning (Melrose, Mass., USA) and 10 μM of aminosteroid substrate in a final 100 μL volume of 50 mM Tris buffer (pH 7.4) supplemented with 10 mM MgCl2. Assays were ended by adding 100 μL of MeOH followed by centrifugation at 13,000 g for 10 min to obtain a pellet of proteins. The supernatant of 2 assays was pooled and submitted to HPLC-MS analysis (Shimadzu LCMS-2020 APCI, Alltima HP C18 (250 mm×4.6 mm, 5 μm) column, MeOH:H2O gradient). Remaining substrate (expressed in %) was calculated by dividing the area under the curve of the substrate for the assays without NADPH by the area under the curve of the substrate for the assays with NADPH and multiplied by 100. Values represent the average of 2 independent experiments.

[3] = system: primary pancreas normal cells; experiment: Toxicity on normal cells (MTS), primary pancreas; type: cell-based, human; conditions: for IC50: human normal cells; for Selectivity Index Pancreas: IC50 normal cells/IC50 cancer cells (primary pancreas / PANC-1)
Experimental: as §1

[4] = system: renal proximal tubule epithelial cells (RPTEC); experiment: Toxicity on normal cells (MTS), RPTEC; type: cell-based, human
Experimental: as §1

[5] = system: OVCAR-3 cells (ovarian cancer); experiment: Cell proliferation assay (MTS), OVCAR-3; type: cell-based; conditions: for IC50: read-out: IC50 (μM) Ovarian cancer OVCAR-3; for antiproliferative activity relative to RM-133, OVCAR-3: fold of RM-133 activity (>1 = more active)
Experimental: as §1

[6] = system: primary ovary normal cells; experiment: cells; type: cell-based, human; conditions: for Selectivity Index Ovary: IC50 normal cells/IC50 cancer cells (primary ovary / OVCAR-3)
Experimental: as §1

[7] = system: HL-60 (acute promyelocytic leukemia) cells; experiment: Cell proliferation assay (MTS), HL-60; type: cell-based; conditions: for IC50: read-out: IC50 (μM) HL-60 (leukemia); for antiproliferative activity relative to RM-133, HL-60: fold of RM-133 activity (>1 = more active)
Experimental: as §1

[8] = system: primary pancreas, primary ovary and renal proximal tubule epithelial cells (RPTEC); experiment: Toxicity on the normal cell types tested; conditions: higher concentration tested 50 μM
Experimental: Human primary epithelial pancreas and ovary cells were obtained from Cedarlane (Chicago, Ill., USA) and were cultured in the manufacturer recommended medium. Human renal proximal tubule epithelial cells (RPTEC) were obtained from Lonza (Mississauga, ON, Canada) and were maintained in DMEM-F12 supplemented as previously reported [4]. The cell lines were all maintained under a 5% CO2 humidified atmosphere at 37° C. and the culture medium was changed every 2 to 3 days and the cells were split once a week to maintain cell propagation.
The cell proliferation assay was performed using 3-(4,5-dimethylthiazol-2-yl)-5-(3-carboxymethoxyphenyl)2-(4-sulfophenyl)-2H-tetrazolium (MTS) (Cell Titer 96 Aqueous, Promega, Nepean, ON, Canada) as previously described [3, 4, 5]. Briefly, cells were plated in triplicate in 96-well plates (1×10^4 cells/well) in appropriate culture medium (total of 90 μL). Before each treatment, the cells were incubated at 37° C. in a 5% CO2 humidified atmosphere for 24 h. The different aminosteroids were dissolved in methanol (50 mM). The stock solutions were diluted at multiple concentrations with culture media in order to obtain the desired final concentration followed by the addition of 10 μL to each well, and the mixture incubated for 3 days. Following treatment, MTS (10 μL) was added to each well and the mixture was incubated for 4 h. […] Selectivity was calculated by dividing the IC50 obtained for a specific primary cell by the IC50 for the related cancer cell line.

[9] = system: PANC-1, BxPC-3, Hs766, OVCAR-3, Caov3, SKOV3, MCF-7, T-47D and LAPC-4 cell lines; experiment: Cytotoxic activity screening at 5 and 1 μM on cancer cell lines; conditions: independently of the cancer cell line tested, result in words
Experimental: The cell proliferation assay was performed using 3-(4,5-dimethylthiazol-2-yl)-5-(3-carboxymethoxyphenyl)2-(4-sulfophenyl)-2H-tetrazolium (MTS) (Cell Titer 96 Aqueous, Promega, Nepean, ON, Canada) as previously described [3, 4, 5]. Briefly, cells were plated in triplicate in 96-well plates (1×10^4 cells/well) in appropriate culture medium (total of 90 μL). Before each treatment, the cells were incubated at 37° C. in a 5% CO2 humidified atmosphere for 24 h. The different aminosteroids were dissolved in methanol (50 mM). The stock solutions were diluted at multiple concentrations with culture media in order to obtain the desired final concentration followed by the addition of 10 μL to each well, and the mixture incubated for 3 days. Following treatment, MTS (10 μL) was added to each well and the mixture was incubated for 4 h.

[10] = human, 1 h, 10 μM, pH 7.4
Experimental: as §2

[11] = system: LNCaP (prostate cancer) cells; experiment: Cell proliferation assay (MTS), LNCaP; type: cell-based; conditions: Homo sapiens, 72 h, 3 days treatment, MTS, read-out: IC50 (μM) Prostate cancer LNCaP
Experimental: as §1

[12] = system: MCF-7 breast cancer cells; experiment: Cell proliferation assay (MTS), MCF-7; type: cell-based, human; conditions: Homo sapiens, MCF7, 72 h, 3 days treatment
Experimental: as §1

[13] = system: LAPC-4 (prostate cancer) cells; experiment: Cell proliferation assay (MTS), LAPC-4; type: cell-based; conditions: read-out: IC50 (μM) Prostate cancer LAPC-4
Experimental: as §1

[14] = system: T-47D breast cancer cell line; experiment: Cell proliferation assay (MTS), T-47D; type: cell-based; conditions: Homo sapiens, T47D, 72 h; 3 days treatment, MTS
Experimental: as §1

[15] = system: PC-3 (prostate cancer) cells; experiment: Cell proliferation assay (MTS), PC-3; type: cell-based; conditions: 72 h; 3 days treatment, MTS; read-out: IC50 (μM) Prostate cancer PC-3
Experimental: as §1

[16] = normal (kidney) cells, read-out: IC50 (μM) RPTEC (normal cells)
[17] = human normal cells, read-out: IC50 (μM) Primary Ovary (normal cells)
[18] = Homo sapiens, OVCAR-3, 72 h, 3 days treatment, MTS
[19] = Homo sapiens, HL-60, 72 h, 3 days treatment, MTS

IC50 ([1]; 3 days treatment, MTS): 25 µM
increased metabolic stability relative to RM-133 [2]: 3.5 fold
IC50 ([5]; 3 days treatment, MTS): 13.1 µM
IC50 ([7]; 3 days treatment, MTS): 6.44 µM
Structure (SMILES): C#C[C@]1(OC(C)=O)CC[C@H]2[C@@H]3CC[C@H]4C[C@H](OC(C)=O)[C@@H](N5CCN(C(=O)[C@@H]6CCCN6C(=O)c6ccc7ccccc7n6)CC5)C[C@]4(C)[C@H]3CC[C@@]21C [5 (3,17-diester), (2β,3α,5α,17α)-2-{4-[1-(quinolin-2-ylcarbonyl)-L-prolyl]piperazin-1-yl}pregn-20-yne-3,17-diyl diacetate]
antiproliferative activity relative to RM-133, PANC-1 [1]: 0.3 fold
IC50 [3]: 16.6 µM
IC50 [4, 16]: 45.5 µM
antiproliferative activity relative to RM-133, OVCAR-3 [5]: 0.4 fold
IC50 [6, 17]: 25.4 µM
antiproliferative activity relative to RM-133, HL-60 [7]: activity similar to RM-133
toxicity on the normal cell types tested [8]: increased toxicity relative to the mono-ester derivative 4

Structure (SMILES): C#C[C@@]1(O)CC[C@H]2[C@@H]3CC[C@H]4C[C@H](OC(C)=O)[C@H](N5CCN(C(=O)[C@@H]6CCCN6C(=O)c6ccc7ccccc7n6)CC5)C[C@]4(C)[C@H]3CC[C@@]21C [4 (3-ester), (2α,3α,5α,17α)-17-hydroxy-2-{4-[1-(quinolin-2-ylcarbonyl)-L-prolyl]piperazin-1-yl}pregn-20-yn-3-yl acetate]
IC50 ([1]; 3 days treatment, MTS): 6.24 µM
antiproliferative activity relative to RM-133, PANC-1 [1]: 1.1 fold
increased metabolic stability relative to RM-133 [2]: 3.1 fold
Selectivity Index Pancreas [3]: 4.8
IC50 [3]: 30.1 µM
IC50 [4, 16]: 32.1 µM
IC50 ([5]; 3 days treatment, MTS): 3.83 µM
antiproliferative activity relative to RM-133, OVCAR-3 [5]: 1.4 fold
Selectivity Index Ovary [6]: 11.0
IC50 [6, 17]: 42 µM
IC50 ([7]; 3 days treatment, MTS): 6.44 µM
antiproliferative activity relative to RM-133, HL-60 [7]: 1.1 fold
toxicity on the normal cell types tested [8]: very low toxicity

Structure (SMILES): C#C[C@@]1(O)CC[C@H]2[C@@H]3CCc4cc(C(C)O)c(N5CCN(C(=O)[C@@H]6CCCN6C(=O)c6ccc7ccccc7n6)CC5)cc4[C@H]3CC[C@@]21C (stereo partly drawn) [Compound 18, {4-[(17β)-17-ethynyl-17-hydroxy-3-(1-hydroxyethyl)estra-1,35(10)-trien-2-yl]piperazin-1-yl}[(2S)-1-(quinolin-2-ylcarbonyl)pyrrolidin-2-yl]methanone]
metabolic stability (% of remaining compound) ([2]; 10 μM, 40 μg human liver microsomes, result in words): slightly lower values
cytotoxic activity in screening (cell survival) [9]: only slight differences in their respective levels of activity

Structure (SMILES): C#C[C@@]1(O)CC[C@H]2[C@@H]3CCc4cc(OC(C)=O)c(N5CCN(C(=O)[C@@H]6CCCN6C(=O)c6ccc7ccccc7n6)CC5)cc4[C@H]3CC[C@@]21C [Compound 3, (17β)-17-ethynyl-17-hydroxy-2-{4-[1-(quinolin-2-ylcarbonyl)-L-prolyl]piperazin-1-yl}estra-1,3,5(10)-trien-3-yl acetate]
phenolic metabolite RM-581-OH (stability of potential prodrugs to hydrolysis) [10]: no trace of the phenolic metabolite RM-581-OH could be observed
IC50 [11]: 0.8 ± 0.3 µM
IC50 [12]: 1.4 ± 0.1 µM
IC50 ([4]; Homo sapiens, RPTEC, relative toxicity on human normal cells, read-out: IC50 (μM) Normal Cells Kidney): ≥ 50 µM
IC50 ([5]; 3 days treatment, MTS): 3.4 µM
IC50 [5, 18]: 3.9 ± 0.4 µM
IC50 ([6]; relative toxicity on human normal cells, read-out: IC50 (μM) Normal Cells Ovary): ≥ 50 µM
IC50 ([13]; 3 days treatment, MTS): 0.6 µM
IC50 ([13]; Homo sapiens, LAPC4, 72 h, 3 days treatment, MTS): 0.5 ± 0.4 µM
IC50 [14]: 0.4 ± 0.2 µM
IC50 [7, 19]: 4.3 µM
toxicity on the normal cell types tested [8]: did not trigger any loss of cell viability even at concentrations as high as 50 μM
IC50 [15]: 1.4 ± 0.3 µM

Structure (SMILES): C#C[C@@]1(O)CC[C@H]2[C@@H]3CCc4cc(OC(=O)N(C)C)c(N5CCN(C(=O)[C@@H]6CCCN6C(=O)c6ccc7ccccc7n6)CC5)cc4[C@H]3CC[C@@]21C [Compound 1, (17β)-17-ethynyl-17-hydroxy-2-{4-[1-(quinolin-2-ylcarbonyl)-L-prolyl]piperazin-1-yl}estra-1,3,5(10)-trien-3-yl dimethylcarbamate]
IC50 ([1]; Homo sapiens, PANC-1, 72 h): 9.6 µM
IC50 ([4]; Homo sapiens, RPTEC, read-out: IC50 (μM) Normal Cells Kidney): ≥ 50 µM
IC50 ([5]; Homo sapiens, OVCAR-3, 72 h): 6.4 µM
IC50 ([6]; Homo sapiens, read-out: IC50 (μM) Normal Cells Ovary): ≥ 50 µM
cytotoxic activity in screening (cell survival) [9]: only slight differences in their respective levels of activity
IC50 ([13]; Homo sapiens, LAPC4, 72 h): 1.3 µM
IC50 ([7]; Homo sapiens, HL-60, 72 h): 4.3 µM

Structure (SMILES): C#C[C@@]1(O)CC[C@H]2[C@@H]3CC[C@H]4C[C@H](OC(=O)N(C)C)[C@@H](N5CCN(C(=O)[C@@H]6CCCN6C(=O)c6ccc7ccccc7n6)CC5)C[C@]4(C)[C@H]3CC[C@@]21C [3 (3-carbamate), (2β,3α,5α,17α)-17-hydroxy-2-{4-[1-(quinolin-2-ylcarbonyl)-L-prolyl]piperazin-1-yl}pregn-20-yn-3-yl dimethylcarbamate]
increased metabolic stability relative to RM-133 ([10]; microsomes): 5.9 fold
IC50 ([1]; Homo sapiens, PANC-1, 72 h, 3 days treatment, MTS): 9.99 µM
antiproliferative activity relative to RM-133, PANC-1 [1]: 0.7 fold
Selectivity Index Pancreas [3]: >5.0
IC50 [3]: > 50 µM
IC50 ([4]; Homo sapiens, RPTEC, normal (kidney) cells, read-out: IC50 (μM) RPTEC (normal cells)): 24.2 µM
IC50 [5, 18]: 20 µM
antiproliferative activity relative to RM-133, OVCAR-3 [5]: 0.3 fold
Selectivity Index Ovary [6]: >2.5
IC50 [6, 17]: > 50 µM
IC50 [7, 19]: 7.95 µM
antiproliferative activity relative to RM-133, HL-60 [7]: 0.9 fold
toxicity on the normal cell types tested [8]: very low toxicity; also recorded: no cytotoxicity was observed

Structure (SMILES): C#C[C@@]1(O)CC[C@H]2[C@@H]3CCc4cc(OC(=O)N(CC)CC)c(N5CCN(C(=O)[C@@H]6CCCN6C(=O)c6ccc7ccccc7n6)CC5)cc4[C@H]3CC[C@@]21C [Compound 2, (17β)-17-ethynyl-17-hydroxy-2-{4-[1-(quinolin-2-ylcarbonyl)-L-prolyl]piperazin-1-yl}estra-1,3,5(10)-trien-3-yl diethylcarbamate]
cytotoxic activity in screening (cell survival) [9]: marked weaker cytotoxic activity; also recorded: significant losses of activity
